In ChEMBL document CHEMBL1201862, “PubChem BioAssay data set” (2004):
Activity calls are given as the source filed them.

Experiments:
[1] = target: T1, DNA dC->dU-editing enzyme APOBEC-3A (Homo sapiens, UniProt P31941); experiment: Dose Response confirmation of small molecule APOBEC3A DNA Deaminase Inhibitors via a fluorescence-based single-stranded DNA deaminase assay. [Related pubchem assays (depositor defined):AID493011, AID493024]; assay type: functional
[2] = target: Intestinal-type alkaline phosphatase (Mus musculus, UniProt P24822); experiment: PubChem AID 488785; assay type: functional
[3] = target: T2, Alkaline phosphatase, tissue-nonspecific isozyme (Homo sapiens, UniProt P05186); experiment: TNAP enzyme inhibition by screening hits, dose response, selectivity assay for mouse IAP inhibitor project, biochemical, human TNAP, uHTS hits (AID 488906); assay type: functional
T2 sequence (P05186 whole entry): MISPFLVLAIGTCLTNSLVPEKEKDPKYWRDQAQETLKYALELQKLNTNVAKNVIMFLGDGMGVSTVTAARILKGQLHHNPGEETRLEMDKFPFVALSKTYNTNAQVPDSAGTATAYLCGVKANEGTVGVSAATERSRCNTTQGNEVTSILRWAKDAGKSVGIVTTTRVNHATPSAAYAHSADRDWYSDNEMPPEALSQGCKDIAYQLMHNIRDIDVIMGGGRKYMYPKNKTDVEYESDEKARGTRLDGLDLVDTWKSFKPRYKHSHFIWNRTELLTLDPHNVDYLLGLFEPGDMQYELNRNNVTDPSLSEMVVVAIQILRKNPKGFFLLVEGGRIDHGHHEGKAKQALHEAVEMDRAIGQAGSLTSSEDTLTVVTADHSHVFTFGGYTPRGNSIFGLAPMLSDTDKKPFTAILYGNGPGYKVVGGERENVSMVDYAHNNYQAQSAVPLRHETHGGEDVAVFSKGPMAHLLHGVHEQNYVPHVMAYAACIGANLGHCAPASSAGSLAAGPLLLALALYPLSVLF

[4] = target: T3, DNA dC->dU-editing enzyme APOBEC-3G (Homo sapiens, UniProt Q9HC16); assay type: functional
[5] = target: T4, Microphthalmia-associated transcription factor (Homo sapiens, UniProt O75030); experiment: TRPM1 promoter luciferase signal decrease, dose response, MITF inhibitor project, cell-based, SK-MEL-5, cherry-picked, set 3 (AID 493073); assay type: functional
T4 sequence (O75030 whole entry): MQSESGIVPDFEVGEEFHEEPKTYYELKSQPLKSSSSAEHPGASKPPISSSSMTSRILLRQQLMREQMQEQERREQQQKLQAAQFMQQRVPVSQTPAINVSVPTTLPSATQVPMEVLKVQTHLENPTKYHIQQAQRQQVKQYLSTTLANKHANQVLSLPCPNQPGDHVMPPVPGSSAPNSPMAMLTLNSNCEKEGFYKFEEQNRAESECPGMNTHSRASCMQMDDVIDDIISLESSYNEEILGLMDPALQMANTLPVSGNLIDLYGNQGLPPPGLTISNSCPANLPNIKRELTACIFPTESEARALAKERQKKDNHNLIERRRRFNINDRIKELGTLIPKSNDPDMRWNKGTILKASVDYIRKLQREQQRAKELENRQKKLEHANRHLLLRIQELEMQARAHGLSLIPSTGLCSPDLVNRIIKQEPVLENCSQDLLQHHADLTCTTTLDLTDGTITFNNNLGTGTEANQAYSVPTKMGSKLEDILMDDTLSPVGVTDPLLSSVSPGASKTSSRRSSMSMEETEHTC

[6] = target: Intestinal-type alkaline phosphatase (Homo sapiens, UniProt P09923); experiment: inhibition of human intestinal alkaline phosphatase – biochemical, dose response (AID 488876); assay type: functional
[7] = target: T1, DNA dC->dU-editing enzyme APOBEC-3A; experiment: SAR analysis of small molecule inhibitors of APOBEC3A DNA Deaminase via a fluorescence-based single-stranded DNA deaminase assay - Set 2.; assay type: functional; settings: read-out: IC50_Mean
[8] = target: T3, DNA dC->dU-editing enzyme APOBEC-3G; experiment: SAR analysis of small molecule inhibitors of APOBEC3G DNA Deaminase via a fluorescence-based single-stranded DNA deaminase assay - Set 2.; assay type: functional; settings: read-out: IC50_Mean
[9] = target: T3, DNA dC->dU-editing enzyme APOBEC-3G; experiment: APOBEC3G deaminase inhibitors, SAR follow-up, biochemical, fluorescence, single-stranded DNA substrate (AID 602136); assay type: functional; settings: read-out: IC50_Mean
[10] = target: T1, DNA dC->dU-editing enzyme APOBEC-3A; experiment: SAR analysis of small molecule inhibitors of APOBEC3A DNA Deaminase via a fluorescence-based single-stranded DNA deaminase assay.; assay type: functional; settings: read-out: IC50_Mean
[11] = NIH-3T3 fibroblast cytotoxicity, dose response, cytotoxicity control, cell-based, fluorescence, Alamar Blue, secondary assay (AID 2327); assay type: functional;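 further: NIH-3T3 mouse fibroblasts cultured with fluconazole at 8 µg/mL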
[12] = C. albicans growth with fluconazole, confirmation, fluorescence, retest (AID 2467); assay type: functional, cell-based
[13] = growth suppression of PTEN-null colon cells, dose response, cell-based, HCT116 PTEN knockout (AID 1047); assay type: functional;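 further: HCT116 colon tumor cells with PTEN knocked out; cells exposed to compound for 60 hours before readout; potency for loss of cell viability measured by luminescence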
[14] = growth suppression of beta-catenin-knockout colon cells, dose response, cell-based, HCT116, human colon tumor (AID 1045); assay type: functional;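 further: HCT116 colon tumor cells with beta catenin knocked out; cells exposed to compound for 60 hours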
[15] = target: T5, Replicative DNA helicase DnaB (Mycobacterium tuberculosis, UniProt P9WMR3); experiment: DnaB intein splicing inhibitors, dose response, biochemical, cell-free fluorescence (AID 449749); assay type: functional
T5 sequence (P9WMR3 whole entry): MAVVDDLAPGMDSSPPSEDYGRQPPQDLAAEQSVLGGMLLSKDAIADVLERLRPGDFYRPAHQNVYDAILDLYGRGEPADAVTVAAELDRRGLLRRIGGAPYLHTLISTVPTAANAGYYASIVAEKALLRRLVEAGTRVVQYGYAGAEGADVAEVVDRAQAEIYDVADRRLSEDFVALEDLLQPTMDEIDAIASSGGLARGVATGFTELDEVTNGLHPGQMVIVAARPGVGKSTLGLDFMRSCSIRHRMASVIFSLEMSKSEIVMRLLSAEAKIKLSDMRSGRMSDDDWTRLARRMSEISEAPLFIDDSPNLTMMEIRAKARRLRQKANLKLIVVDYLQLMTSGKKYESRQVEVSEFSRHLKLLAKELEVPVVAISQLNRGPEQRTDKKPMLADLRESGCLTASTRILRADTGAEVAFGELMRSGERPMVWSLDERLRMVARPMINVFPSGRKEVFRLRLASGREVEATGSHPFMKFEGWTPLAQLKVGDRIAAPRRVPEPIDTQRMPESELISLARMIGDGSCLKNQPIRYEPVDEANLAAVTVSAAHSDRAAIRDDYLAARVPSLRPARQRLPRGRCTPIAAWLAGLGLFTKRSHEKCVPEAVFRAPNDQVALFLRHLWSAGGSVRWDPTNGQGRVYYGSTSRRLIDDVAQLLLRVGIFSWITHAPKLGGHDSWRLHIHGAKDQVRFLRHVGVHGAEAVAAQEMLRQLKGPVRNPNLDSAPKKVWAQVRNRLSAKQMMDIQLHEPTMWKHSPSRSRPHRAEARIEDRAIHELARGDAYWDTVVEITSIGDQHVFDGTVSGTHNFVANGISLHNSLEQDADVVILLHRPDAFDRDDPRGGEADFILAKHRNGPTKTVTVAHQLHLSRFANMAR

[16] = target: Heat shock protein HSP 90-alpha (Homo sapiens, UniProt P07900); assay type: functional, organism-based
Protein RecA = target: T6, Protein RecA (Mycobacterium tuberculosis, UniProt P9WHJ3); experiment: Fluorescence Cell-Free Homogeneous Dose Retest to Identify Inhibitors of RecA-Intein Splicing Activity. [Related pubchem assays (depositor defined):AID2097, AID2223, AID489010, AID492950]; assay type: functional
T6 sequence (P9WHJ3 whole entry): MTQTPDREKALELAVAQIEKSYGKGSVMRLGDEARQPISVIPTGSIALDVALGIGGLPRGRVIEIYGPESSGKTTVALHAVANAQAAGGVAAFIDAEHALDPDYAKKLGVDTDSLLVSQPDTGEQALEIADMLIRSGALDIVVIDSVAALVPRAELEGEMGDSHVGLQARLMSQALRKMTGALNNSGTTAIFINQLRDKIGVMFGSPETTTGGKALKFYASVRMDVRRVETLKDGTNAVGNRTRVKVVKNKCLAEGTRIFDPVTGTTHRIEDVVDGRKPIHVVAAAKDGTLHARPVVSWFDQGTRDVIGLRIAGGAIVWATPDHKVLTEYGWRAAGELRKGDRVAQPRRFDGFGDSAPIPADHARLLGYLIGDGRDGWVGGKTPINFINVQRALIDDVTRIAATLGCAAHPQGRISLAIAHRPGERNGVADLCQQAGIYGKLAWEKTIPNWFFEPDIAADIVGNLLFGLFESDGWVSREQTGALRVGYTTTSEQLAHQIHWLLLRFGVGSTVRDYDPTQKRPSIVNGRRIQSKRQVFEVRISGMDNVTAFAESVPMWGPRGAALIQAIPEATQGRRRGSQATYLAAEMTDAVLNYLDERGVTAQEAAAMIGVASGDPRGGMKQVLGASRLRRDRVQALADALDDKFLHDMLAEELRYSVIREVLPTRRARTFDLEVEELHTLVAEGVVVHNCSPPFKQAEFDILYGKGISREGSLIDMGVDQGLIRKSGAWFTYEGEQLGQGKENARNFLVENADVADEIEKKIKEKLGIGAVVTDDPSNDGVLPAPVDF

Melanocortin receptor 4 = Melanocortin receptor 4 (Homo sapiens, UniProt P32245); experiment: MC4R antagonist potency on cAMP, dose response, cell-based, TR-FRET, biased antagonists (AID 602298); assay type: functional;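 further: antagonist potency against agonist-stimulated cAMP production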
[17] = Shn3 3'UTR reporter inhibitors, dose response, cell-based, Clone20 osteoblasts, firefly luciferase, cherry-picked (AID 624132); assay type: functional;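 further: firefly luciferase luminescence from reporter carrying the Shn3 3'UTR in osteoblasts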
[18] = control 3'UTR Renilla luciferase suppression, dose response, counter-screen for Shn3 inhibitor project, cell-based, Clone20-Shn3RL, cherry-picked (AID 624133); assay type: functional
[19] = nonselective inhibitors of cellular cAMP signaling, dose response, counter-screen for MC4R biased antagonist project, cell-based, TR-FRET cAMP detection (AID 602305); assay type: functional;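 further: U2OS cells stimulated with forskolin near its EC80 as the cAMP inducer; potency is for inhibition of forskolin-stimulated cAMP signaling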
HEK293 [20] = experiment: cells; settings: Homo sapiens
HEK293 [21] = experiment: cells; settings: Homo sapiens; remark: listed apart in the source
[22] = target: T7, High affinity choline transporter 1 (Homo sapiens, UniProt Q9GZV3); experiment: CHT inhibitors, dose response, cell-based, 5-point CRC, membrane potential dye (AID 504840); assay type: functional
T7 sequence (Q9GZV3 whole entry): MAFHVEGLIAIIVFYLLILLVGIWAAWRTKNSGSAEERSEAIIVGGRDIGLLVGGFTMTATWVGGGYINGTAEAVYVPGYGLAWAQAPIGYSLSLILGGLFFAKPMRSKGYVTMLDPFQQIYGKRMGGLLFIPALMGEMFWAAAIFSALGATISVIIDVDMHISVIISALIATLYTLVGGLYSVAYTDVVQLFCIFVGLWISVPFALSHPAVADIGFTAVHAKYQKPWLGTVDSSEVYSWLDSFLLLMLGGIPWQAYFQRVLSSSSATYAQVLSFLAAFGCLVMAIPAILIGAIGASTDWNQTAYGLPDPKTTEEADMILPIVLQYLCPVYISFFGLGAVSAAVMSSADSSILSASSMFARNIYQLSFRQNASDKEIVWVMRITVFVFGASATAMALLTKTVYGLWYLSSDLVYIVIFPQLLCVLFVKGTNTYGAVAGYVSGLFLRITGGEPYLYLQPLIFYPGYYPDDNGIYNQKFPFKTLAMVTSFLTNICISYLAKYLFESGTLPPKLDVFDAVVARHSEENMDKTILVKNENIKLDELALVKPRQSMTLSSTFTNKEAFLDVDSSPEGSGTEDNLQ

[23] = target: T7, High affinity choline transporter 1; experiment: CHT inhibitors, dose response, cell-based, 10-point CRC, membrane potential dye (AID 588401); assay type: functional;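 further: membrane potential dye fluorescence of choline-evoked depolarization via CHT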
[24] = target: ALK tyrosine kinase receptor (Homo sapiens, UniProt Q9UM73); assay type: functional;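 further: ALK tested as one member of a kinase panel screen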
[25] = target: Cyclin-dependent kinase 19 (Homo sapiens, UniProt Q9BWU1); experiment: Navigating the Kinome. Panel member name: CDC2L6; assay type: functional
[26] = target: Serine/threonine-protein kinase pim-1 (Homo sapiens, UniProt P11309); assay type: functional
[27] = target: Cell division cycle 7-related protein kinase (Homo sapiens, UniProt O00311); assay type: functional;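 further: value obtained from a kinome-wide kinase panel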
[28] = target: Homeodomain-interacting protein kinase 2 (Homo sapiens, UniProt Q9H2X6); assay type: functional;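 further: measured within a kinome-wide kinase profiling panel, HIPK2 being one panel member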
[29] = target: Interleukin-1 receptor-associated kinase 4 (Homo sapiens, UniProt Q9NWZ3); assay type: functional
[30] = target: Glycogen synthase kinase-3 beta (Homo sapiens, UniProt P49841); assay type: functional;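 further: value comes from a broad kinome profiling panel, with GSK3B as the panel member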
[31] = target: cAMP-dependent protein kinase catalytic subunit alpha (Homo sapiens, UniProt P17612); assay type: functional
[32] = target: Dual specificity protein kinase CLK4 (Homo sapiens, UniProt Q9HAZ1); assay type: functional
[33] = target: Mitogen-activated protein kinase kinase kinase kinase 4 (Homo sapiens, UniProt O95819); assay type: functional

T3 sequence (Q9HC16 whole entry): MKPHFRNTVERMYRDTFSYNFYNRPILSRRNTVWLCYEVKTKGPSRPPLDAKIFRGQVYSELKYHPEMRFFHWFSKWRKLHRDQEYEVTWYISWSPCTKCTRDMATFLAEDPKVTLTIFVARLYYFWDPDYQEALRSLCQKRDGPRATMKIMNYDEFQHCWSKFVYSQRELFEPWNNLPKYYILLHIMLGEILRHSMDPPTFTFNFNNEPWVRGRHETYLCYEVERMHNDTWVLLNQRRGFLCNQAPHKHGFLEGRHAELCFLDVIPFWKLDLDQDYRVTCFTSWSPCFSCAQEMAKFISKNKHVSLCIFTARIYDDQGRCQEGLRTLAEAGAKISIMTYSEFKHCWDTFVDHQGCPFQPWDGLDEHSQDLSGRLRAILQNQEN
T1 sequence (P31941 whole entry): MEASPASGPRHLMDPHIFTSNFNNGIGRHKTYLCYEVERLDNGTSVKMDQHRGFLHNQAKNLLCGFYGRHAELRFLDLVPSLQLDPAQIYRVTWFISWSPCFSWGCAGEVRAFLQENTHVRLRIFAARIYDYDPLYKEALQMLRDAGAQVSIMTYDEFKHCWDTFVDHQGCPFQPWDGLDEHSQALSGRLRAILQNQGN
Chain of Intestinal-type alkaline phosphatase (Homo sapiens, UniProt P09923) (P09923 whole entry): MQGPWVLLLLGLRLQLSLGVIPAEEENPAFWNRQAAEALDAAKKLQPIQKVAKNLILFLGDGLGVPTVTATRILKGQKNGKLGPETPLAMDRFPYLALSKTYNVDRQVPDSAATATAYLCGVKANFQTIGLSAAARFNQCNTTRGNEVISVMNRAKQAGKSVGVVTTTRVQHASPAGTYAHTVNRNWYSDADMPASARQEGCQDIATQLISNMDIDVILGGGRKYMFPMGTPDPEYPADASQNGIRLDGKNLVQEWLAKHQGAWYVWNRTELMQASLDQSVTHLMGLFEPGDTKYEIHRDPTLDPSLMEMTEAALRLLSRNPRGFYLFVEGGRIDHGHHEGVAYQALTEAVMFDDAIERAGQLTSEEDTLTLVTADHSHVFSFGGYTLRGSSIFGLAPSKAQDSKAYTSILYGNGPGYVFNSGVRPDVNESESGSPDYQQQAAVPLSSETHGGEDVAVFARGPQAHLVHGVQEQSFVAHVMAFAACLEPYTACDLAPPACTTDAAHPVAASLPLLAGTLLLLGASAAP
Chain of Intestinal-type alkaline phosphatase (Mus musculus, UniProt P24822) (P24822 whole entry): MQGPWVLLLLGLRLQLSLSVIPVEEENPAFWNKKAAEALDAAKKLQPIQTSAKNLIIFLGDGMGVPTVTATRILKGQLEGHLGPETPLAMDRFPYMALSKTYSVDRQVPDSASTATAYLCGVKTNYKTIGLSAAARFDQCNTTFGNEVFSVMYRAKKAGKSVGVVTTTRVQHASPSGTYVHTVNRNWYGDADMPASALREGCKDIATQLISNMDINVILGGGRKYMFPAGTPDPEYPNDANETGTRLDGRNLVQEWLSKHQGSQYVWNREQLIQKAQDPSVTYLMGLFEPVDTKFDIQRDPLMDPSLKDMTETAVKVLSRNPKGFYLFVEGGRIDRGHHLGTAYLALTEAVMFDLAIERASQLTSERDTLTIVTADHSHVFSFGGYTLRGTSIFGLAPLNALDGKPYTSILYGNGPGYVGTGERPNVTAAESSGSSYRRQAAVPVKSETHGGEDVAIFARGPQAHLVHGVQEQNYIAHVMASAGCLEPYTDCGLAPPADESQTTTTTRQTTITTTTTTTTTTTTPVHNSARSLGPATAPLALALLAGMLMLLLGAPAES
Chain of Homeodomain-interacting protein kinase 2 (Q9H2X6 whole entry): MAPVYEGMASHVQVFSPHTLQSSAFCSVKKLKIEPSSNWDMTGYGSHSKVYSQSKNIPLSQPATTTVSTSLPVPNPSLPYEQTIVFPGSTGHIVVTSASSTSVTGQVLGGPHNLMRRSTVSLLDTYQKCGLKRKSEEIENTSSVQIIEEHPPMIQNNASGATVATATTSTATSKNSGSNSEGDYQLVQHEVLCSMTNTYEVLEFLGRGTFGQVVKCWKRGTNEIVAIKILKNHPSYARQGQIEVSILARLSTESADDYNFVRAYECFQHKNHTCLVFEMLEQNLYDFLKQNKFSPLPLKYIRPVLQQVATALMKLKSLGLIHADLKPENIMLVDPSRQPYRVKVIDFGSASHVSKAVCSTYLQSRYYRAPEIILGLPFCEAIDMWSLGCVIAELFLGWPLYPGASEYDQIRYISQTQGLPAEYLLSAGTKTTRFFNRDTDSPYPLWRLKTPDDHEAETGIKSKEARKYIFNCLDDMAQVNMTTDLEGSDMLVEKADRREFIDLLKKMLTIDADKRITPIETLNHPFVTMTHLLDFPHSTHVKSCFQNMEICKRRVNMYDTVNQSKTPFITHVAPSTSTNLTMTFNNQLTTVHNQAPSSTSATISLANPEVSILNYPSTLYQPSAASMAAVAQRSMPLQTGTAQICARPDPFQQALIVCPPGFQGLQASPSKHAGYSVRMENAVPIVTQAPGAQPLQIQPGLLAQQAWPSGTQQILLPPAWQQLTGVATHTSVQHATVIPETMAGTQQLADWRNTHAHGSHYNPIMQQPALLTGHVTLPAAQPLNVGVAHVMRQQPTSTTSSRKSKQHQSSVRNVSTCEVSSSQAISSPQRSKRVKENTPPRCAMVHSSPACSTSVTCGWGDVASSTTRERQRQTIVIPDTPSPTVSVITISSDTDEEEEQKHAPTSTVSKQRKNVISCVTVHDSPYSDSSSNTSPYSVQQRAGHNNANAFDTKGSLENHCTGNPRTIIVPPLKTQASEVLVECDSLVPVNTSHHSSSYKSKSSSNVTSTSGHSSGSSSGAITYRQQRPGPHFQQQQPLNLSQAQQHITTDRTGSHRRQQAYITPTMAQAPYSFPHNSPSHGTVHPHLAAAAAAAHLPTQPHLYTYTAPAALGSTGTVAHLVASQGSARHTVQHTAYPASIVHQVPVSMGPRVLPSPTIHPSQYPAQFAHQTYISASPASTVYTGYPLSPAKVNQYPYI
Chain of Cyclin-dependent kinase 19 (Q9BWU1 whole entry): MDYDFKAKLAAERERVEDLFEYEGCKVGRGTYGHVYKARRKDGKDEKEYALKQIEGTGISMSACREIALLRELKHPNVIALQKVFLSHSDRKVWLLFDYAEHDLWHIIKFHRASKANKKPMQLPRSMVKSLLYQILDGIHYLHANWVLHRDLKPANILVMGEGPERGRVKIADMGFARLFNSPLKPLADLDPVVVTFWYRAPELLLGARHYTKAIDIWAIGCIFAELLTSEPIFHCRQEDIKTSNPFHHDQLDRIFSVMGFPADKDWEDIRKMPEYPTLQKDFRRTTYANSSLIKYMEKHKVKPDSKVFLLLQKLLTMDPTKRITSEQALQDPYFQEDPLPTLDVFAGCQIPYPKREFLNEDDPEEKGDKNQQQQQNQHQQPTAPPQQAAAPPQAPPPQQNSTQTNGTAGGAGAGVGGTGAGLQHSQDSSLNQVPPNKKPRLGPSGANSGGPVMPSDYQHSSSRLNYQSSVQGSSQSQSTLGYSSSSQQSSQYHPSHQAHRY
Chain of Dual specificity protein kinase CLK4 (Q9HAZ1 whole entry): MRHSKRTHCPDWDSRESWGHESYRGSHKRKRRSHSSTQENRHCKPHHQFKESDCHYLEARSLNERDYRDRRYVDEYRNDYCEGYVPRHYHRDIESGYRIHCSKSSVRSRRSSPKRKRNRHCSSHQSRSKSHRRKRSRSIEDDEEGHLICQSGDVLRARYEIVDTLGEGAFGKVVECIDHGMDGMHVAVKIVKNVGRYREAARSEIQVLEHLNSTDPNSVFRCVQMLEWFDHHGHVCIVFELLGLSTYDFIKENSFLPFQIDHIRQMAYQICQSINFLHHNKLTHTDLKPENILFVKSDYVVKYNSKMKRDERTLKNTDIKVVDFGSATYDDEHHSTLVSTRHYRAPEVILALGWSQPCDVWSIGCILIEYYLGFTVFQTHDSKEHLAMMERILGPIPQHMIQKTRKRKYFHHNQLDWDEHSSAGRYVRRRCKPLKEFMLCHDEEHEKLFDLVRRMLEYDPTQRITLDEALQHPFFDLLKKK
Chain of Serine/threonine-protein kinase pim-1 (P11309 whole entry): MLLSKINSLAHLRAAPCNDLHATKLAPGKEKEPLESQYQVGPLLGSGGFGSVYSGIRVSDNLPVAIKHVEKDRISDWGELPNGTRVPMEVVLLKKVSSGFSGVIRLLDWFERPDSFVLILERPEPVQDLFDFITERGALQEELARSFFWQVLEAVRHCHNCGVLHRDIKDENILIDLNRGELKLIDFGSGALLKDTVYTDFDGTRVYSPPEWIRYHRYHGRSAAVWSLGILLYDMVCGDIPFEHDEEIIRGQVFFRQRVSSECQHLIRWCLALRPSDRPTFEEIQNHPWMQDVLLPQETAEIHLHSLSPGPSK
Chain of Melanocortin receptor 4 (P32245 whole entry): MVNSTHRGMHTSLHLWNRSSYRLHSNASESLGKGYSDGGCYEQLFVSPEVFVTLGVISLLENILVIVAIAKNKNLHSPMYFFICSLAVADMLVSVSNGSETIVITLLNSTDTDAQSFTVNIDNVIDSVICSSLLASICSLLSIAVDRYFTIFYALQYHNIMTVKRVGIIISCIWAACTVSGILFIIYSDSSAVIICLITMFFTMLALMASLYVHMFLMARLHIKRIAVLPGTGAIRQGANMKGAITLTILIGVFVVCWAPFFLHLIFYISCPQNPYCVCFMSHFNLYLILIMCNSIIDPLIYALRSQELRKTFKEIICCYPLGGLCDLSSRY
Chain of Interleukin-1 receptor-associated kinase 4 (Q9NWZ3 whole entry): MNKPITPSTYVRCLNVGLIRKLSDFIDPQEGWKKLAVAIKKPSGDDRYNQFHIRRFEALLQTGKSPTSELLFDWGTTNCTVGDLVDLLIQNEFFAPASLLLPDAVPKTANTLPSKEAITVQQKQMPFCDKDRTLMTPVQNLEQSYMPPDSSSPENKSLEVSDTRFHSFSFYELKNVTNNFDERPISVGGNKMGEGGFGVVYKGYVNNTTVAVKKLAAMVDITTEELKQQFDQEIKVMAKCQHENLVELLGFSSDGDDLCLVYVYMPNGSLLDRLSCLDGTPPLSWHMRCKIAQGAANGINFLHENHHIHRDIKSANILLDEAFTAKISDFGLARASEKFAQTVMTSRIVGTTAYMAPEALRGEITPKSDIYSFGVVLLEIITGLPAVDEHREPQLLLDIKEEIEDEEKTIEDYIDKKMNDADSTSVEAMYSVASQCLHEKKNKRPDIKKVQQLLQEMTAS

Cn1nc([N+](=O)[O-])nc1S(C)(=O)=O
active: IC50 [1] 4.14 µM | IC50 [2] 5.66 µM | IC50 [3] 74.1 µM | IC50 [4] 65.5 µM | AC50 [5] 9.2 µM
inactive: IC50 [6] > 100 µM | IC50 [7] 13.1 µM | IC50 [8] 24.1 µM | IC50 [9] 27.2 µM | IC50 [10] 14.4 µM

O=[N+]([O-])c1cc(S(=O)(=O)C(F)(F)F)ccc1Sc1nc2ccccc2s1
inactive: IC50 [19] > 64.6 µM | EC50 (HEK293 [20]) > 59.6 µM | EC50 (HEK293 [21]) > 59.6 µM
active: EC50 [11] 5 µM | EC50 [13] 8.04 µM | EC50 [14] 7.45 µM | AC50 [15] 1.75 µM | AC50 [16] 1.75 µM | EC50 (Protein RecA) 0.249 µM | IC50 (Melanocortin receptor 4) > 2.39 µM | AC50 [17] 2.45 µM | AC50 [18] 15.4 µM
> 38 µM (not active): EC50 [12]

CC1CCCCC1NC(=O)C1CCCN(S(=O)(=O)c2ccc(-n3cnnn3)cc2)C1 (stereo not given)
active: IC50 [22] 5.75 µM | IC50 [23] 3.98 µM

CCNC(=O)c1cnc(N)c2c(-c3ccc(NC(=O)Nc4cccc(Cl)c4)cc3)csc12
inactive: Ki [25] > 100 µM
active: Ki [24] 0.158 µM

COc1ccccc1C(=O)Nc1n[nH]c2ccc(-c3cn(Cc4ccccc4)nn3)cc12
active: Ki [26] 0.501 µM | Ki [27] 0.00398 µM | Ki [28] 0.02 µM | Ki [30] 0.00501 µM | Ki [32] 0.00398 µM | Ki [33] 0.0794 µM
inactive: Ki [29] > 10 µM | Ki [31] > 7.94 µM
